Values of other authors as cited in patent US20210212947A1, “Docetaxel palmitate liposome and preparation method thereof” (SHANGHAI WEI ER BIOPHARMACEUTICAL TECH CO., LTD., priority 2018, published 2021).

Experiments:
[1] = times that of paclitaxel

In the case of CC(=O)OC12COC1CC(O)C1(C)C(=O)C(O)C3=C(C)C(OC(=O)C(O)C(NC(=O)OC(C)(C)C)c4ccccc4)CC(O)(C(OC(=O)c4ccccc4)C21)C3(C)C (stereo not drawn) [Docetaxel, [2aR-(2aα,4β,4aβ,6β,9α(aR*,βS*),11a,12a,12aα,12bα)]-β-[[(1,1dimethylethyl (Oxy)carbonyl]amino]-α-hydroxyphenylpropionic acid [12b-acetoxy-12-benzoyloxy-2a,3,4,4a,5,6,9,10,11,12,12a,12b -Dodecahydro-4,6,11-trihydroxy-4a,8,13,13-tetramethyl-5-oxo-7,11-methylene-1H-cyclodecpentaeno [3,4]Benzo [1,2-b]oxetane-9-yl]ester], the “anti-tumor activity relative to paclitaxel” value [1] is listed as 1.3-12 times, the “solubility in organic solvents” value (organic solvents such as ethanol, acetone, ether and benzene) is listed as “soluble” and the solubility in water (water) is listed as “insoluble”.
